In US6114326A, “Use of cabergoline in the treatment of restless legs syndrome” (priority 1999, dated 2000):
Read-outs that look alike come from different tables or passages of the source.

Key:
[1] = system: restless legs syndrome patients; settings: in vivo; cited from earlier work
[2] = system: restless legs syndrome patients; settings: open clinical trials of opioids; cited from earlier work
[3] = system: restless legs syndrome patients; assay: Prior treatment history of the trial patients
Procedure: See also, Stiasny K., Oertel W. H., Schuiler P. (1998). Cabergoline in RLS, ENS, Nice, Abstract.
Efficacy was assessed by polysomnography and subjective ratings. […] At study entry all patients were comedicated with domperidone (20 mg TID) and five were still under levodopa therapy (400-800 mg).
Subjects. Nine patients (seven women and two men, mean age 54.1±8.7, range 38.1-64.3 years) with idiopathic RLS for 23.1±13.7 years (range 5-47 years) participated. […] At study entry five patients were on levodopa with dosages ranging from 400-800 mg. […] The remaining four patients were off any specific RLS medication during baseline investigation. […] At baseline conditions the physician considered the patients to be extremely ill (2), very ill (4) or markedly ill (3).

[4] = cited from earlier work
[5] = system: restless legs syndrome patients; settings: cited from earlier work
[6] = system: restless legs syndrome patients; settings: 7.5 mg, cited from earlier work
[7] = system: restless legs syndrome patients; settings: cited from earlier work; remark: listed apart in the source

## NCC1(CC(=O)O)CCCCC1 [gabapentin]
[1]
  possible side effects: dizziness, sleepiness, fatigue, increased appetite, and unsteadiness

## C=CCN1CC[C@]23c4c5ccc(O)c4O[C@H]2C(=O)CC[C@@]3(O)[C@H]1C5 [naloxone]
[2]
  reversal by naloxone (in words): reversible

## N[C@@H](Cc1ccc(O)c(O)c1)C(=O)O [L-dopa]
[3]; all patients, standard or standard and slow release
  benefit of previous levodopa therapy: partial benefit
[4]; levodopa, regular release
  half-life: 2 to 4 h
[5]; 100 mg with carbidopa 10 mg, most cases
  suppression of RLS (in words): completely suppresses RLS
[5]; 100 mg with carbidopa 10 mg
  rebound (augmentation) of PLMS in last part of the night: often observed
[5]; 12 week study, Callado-Seidel et al.
  rate of augmentation: 27%
[5]; 22 RLS patients with augmentation
  patients with augmentation reporting 3 major symptoms of increased severity: 100%
[5]; Allen and Earley, Sleep 1996
  rate of augmentation in PLMS patients: 31%
  rate of augmentation in RLS patients: 82%
[5]; Allen and Earley
  RLS patients with augmentation requiring a medication change: 50%
[5]; Earley and Allen
  patients who responded to levodopa: 21 of 51
[5]; L-Dopa or L-Dopa plus dopa-decarboxylase-inhibitor, usually
  time until patients no longer respond well (tolerance): ≤ 6 months
[5]; RLS patients with augmentation
  patients reporting increased movement in other body parts: 7%
[5]; RLS
  tolerance (in words): common
[5]; double-blind PSG study, administered twice at night
  reduction of RLS at bedtime and PLMS throughout the night (in words): significant reduction
[5]; with peripheral carboxylase inhibitor, 10:1 ratio
  efficacy in RLS (in words): effective

## CC(C)C[C@H]1C(=O)N2CCC[C@H]2[C@]2(O)O[C@](NC(=O)[C@@H]3C=C4c5cccc6[nH]c(Br)c(c56)C[C@H]4N(C)C3)(C(C)C)C(=O)N12 [Bromocriptine]
[3]; bromocriptine 5 mg, one patient
  side effect under prior treatment: severe arterial hypotension
[6]; 1 to 3 hours prior to sleep, double blind crossover
  patients with subjective improvement in restlessness and paresthesia compared to placebo: 5 of 6
[6]; one patient
  side effects: transient nasal stuffiness and lightheadedness

## CCCN1C[C@H](CSC)C[C@@H]2c3cccc4[nH]cc(c34)C[C@H]21 [Pergolide]
[4]; pergolide
  half-life: 7 to 16 h
[7]; 6 month open label trial
  effect in patients who developed augmentation under levodopa: some effect
[7]; Earley and Allen
  patients who responded well to pergolide: 19 of 26
  pergolide patients with augmentation: 4 of 26
[7]; pergolide with low dose L-dopa
  side effects: orthostatic hypotension and gastrointestinal problems
[7]; pergolide, Earley and Allen
  patients suffering from augmentation: 15%
[7]; two open trials, follow-up 6 to 28 and 2 to 39 months
  augmentation under pergolide (in words): to a lower degree and less severe
[7]; with low dose L-dopa, patients not responding to L-dopa alone
  clinical improvement (in words): clinical improvement
